Source: publication PMC10333465, “Multi-Function of a New Bioactive Secondary Metabolite Derived from Endophytic Fungus Colletotrichum acutatum of Angelica sinensis” (Journal of Microbiology and Biotechnology, 2022)
Values after ≈ are worked out from the molar mass of the structure shown.

Columns and labels:
Assay type in all cases: biochemical
[1] = target: T1, DNA topoisomerase I (Human Top I) (Homo sapiens, UniProt P11387); assay: pBR322 supercoiled DNA relaxation assay, agarose gel ([…])
T1 construct: gene TOP1
T1 sequence (P11387 2-765): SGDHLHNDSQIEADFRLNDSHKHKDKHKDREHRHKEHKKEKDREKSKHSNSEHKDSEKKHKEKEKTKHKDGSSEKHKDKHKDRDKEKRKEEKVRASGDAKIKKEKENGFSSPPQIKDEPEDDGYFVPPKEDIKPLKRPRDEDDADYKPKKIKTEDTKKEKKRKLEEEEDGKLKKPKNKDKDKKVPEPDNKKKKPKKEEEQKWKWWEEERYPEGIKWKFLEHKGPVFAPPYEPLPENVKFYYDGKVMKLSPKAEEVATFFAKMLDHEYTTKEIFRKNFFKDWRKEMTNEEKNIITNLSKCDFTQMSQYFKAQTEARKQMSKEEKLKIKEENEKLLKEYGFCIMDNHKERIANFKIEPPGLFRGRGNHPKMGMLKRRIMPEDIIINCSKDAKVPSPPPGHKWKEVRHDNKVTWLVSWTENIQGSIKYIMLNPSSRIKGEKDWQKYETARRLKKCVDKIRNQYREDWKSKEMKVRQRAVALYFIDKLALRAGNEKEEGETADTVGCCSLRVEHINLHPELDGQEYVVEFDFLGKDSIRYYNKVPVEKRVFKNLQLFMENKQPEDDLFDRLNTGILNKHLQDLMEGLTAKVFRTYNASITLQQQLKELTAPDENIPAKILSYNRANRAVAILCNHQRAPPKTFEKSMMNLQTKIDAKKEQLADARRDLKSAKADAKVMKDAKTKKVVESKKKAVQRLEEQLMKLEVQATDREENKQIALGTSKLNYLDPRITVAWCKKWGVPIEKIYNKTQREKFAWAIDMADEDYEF

α-glucosidase = assay: colorimetric pNPG enzyme assay
α-amylase = assay: colorimetric starch/DNS enzyme assay

CCCC(O)c1coc(=O)c(C)c1OC (stereo not drawn) [C-HMMP, 5-(1-hydroxybutyl)-4-methoxy-3-methyl-2H-pyran-2-one] was tested, and the “pBR322 supercoiled DNA relaxation assay, agarose gel (50, 150, 250 μg/ml)” value [1] was ~ 250 μg/ml, the IC50 (α-glucosidase) was 144.7 µg/mL (≈ 682 µM) and the IC50 (α-amylase) was 118.6 µg/mL (≈ 559 µM).
